This is an account of results in publication PMC10766610, “DCAF1-based PROTACs with activity against clinically validated targets overcoming intrinsic- and acquired-degrader resistance” (Nature Communications, 2024).

Read-outs that look alike come from different tables or passages of the source. Some results are limits rather than exact numbers.

The GI50 is the concentration that inhibits growth by half. The Kd is the equilibrium constant for the complex coming apart. Usually IC50 stands for the midpoint of a concentration-inhibition curve.

Series [1] in a line: Viability by FSC/SSC gate (flow cytometry) in TMD8 BTK-GFP/mCh cells. Type of series: cell-based, human. To be noted: human, TMD8 BTK-GFP/mCh cells, TMD8 BTK-GFP/mCh, 24 h. The protocol: For flow cytometry measurements, 25,000 exponentially growing TMD8 BTK-GFP/mCh cells were plated in 100 μL of each well of a 96-well plate and grown for 24 h. Cells were then dosed with corresponding compounds and doses from 10 mM DMSO stock for 24 h, after which GFP and mCherry fluorescence was read with a Beckmann Coulter Cytoflex. For competition experiment, both compounds were added at the same time and dosed for 24 h. Cells were gated based on Forward & Side Scatter and selection for Single cells using SSC-A vs. SSC-H. Further, the population of viable cells was defined by the forward & side-scatter characteristics of DMSO-treated cells. […] Effects on viability were measured by the reduction of the percentage of cells included in this viable-population gate with increasing doses of compound tested. Degradation of BTK was calculated based on subtracting background (BG) fluorescence of parental TMD8 signal via (GFP-BG)/(mCherry-BG) of viable cells. Median ratios of three technical (different wells) replicates were used to calculate daily averages. Each compound dose–response was generated via three biological replicates (different days of experiment). Degradation curve parameters (DC50 & Abs. DC50 & max. Deg) were extracted using GraphPad Prism’s 4-parameter logistic curve fitting.
The viability window was determined by measuring the GI50 of viability based on the percentage of cells included in the viable gate and comparing it to the DC50 of degradation. The fold-change difference describing this window is [GI50 Viability / DC50 Degradation], where values above 1 indicate a positive (lower DC50 degradation than AC50 viability) window.

Another series deals with BTK (Homo sapiens, UniProt Q06187). Kind of series: Immunoblot of endogenous BTK in TMD8 cells. Format: cell-based. Further details: performed with full-length BTK and endogenous DCAF1; expressed in transfected cells; host or cells: TMD8 cells, lentiviral, blasticidin-selected (TMD8 BTK-GFP/mCh). The protocol:
Whole cell lysates for immunoblotting were prepared by pelleting cells at 4 °C (300 g) for 3 min. Cell pellets were then washed 1x with PBS and resuspended in RIPA lysis buffer (VWR, cat # 97063-270) supplemented with protease (Thermo Scientific, cat # A32955) and phosphatase (Thermo Scientific, cat # A32957) inhibitor tablets. Lysates were clarified at 16,000 × g for 15 min at 4 °C prior to quantification by Lowry assay (Bio-Rad cat # 5000113 and cat # 5000114). Whole-cell lysates were loaded into 4–20% Criterion TGX Precast 18 well gels (Bio-Rad, cat # 5671094) and separated by electrophoreses at 120 V for 1 h. The gels were transferred to a nitrocellulose membrane using the Trans-Blot Turbo (Bio-Rad) for 7 min and then blocked for 1 h at room temperature in Odyssey blocking buffer (LICOR Biosciences, cat # 927-50000). Membranes were probed with the appropriate primary antibodies (diluted 1:1000) overnight at 4 °C in 20% Odyssey blocking buffer in 1x TBST. Membranes were washed three times with 1x TBST (5 min per wash), and then incubated with IRDye goat anti-mouse (LICOR, cat # 926-32210) or goat anti-rabbit (LICOR, cat # 926-32211) secondary antibody diluted 1:10,000 in 20% Odyssey blocking buffer for 1 h at room temperature. After three 5-min washes with 1x TBST, the immunoblots were visualized using the ODYSSEY Infrared Imaging System (LICOR). Alternatively, SDS-PAGE resolved proteins were transferred to a PVDF membrane using a wet blotting system (Invitrogen). Membranes were blocked in 5% Milk-PBS-Tween 20 for 1 h and incubated with primary antibody over night at 4 °C. Secondary antibodies (secondary antibody: anti-rabbit, goat pAb to Rb-IgG (Abcam, #7090); secondary antibody: anti-mouse, sheep IgG HRP-linked (GE healthcare, #NA931V)) were incubated for 1 h at room temperature (RT) before blots were developed on film using the detection kit SuperSignal West Femto Maximum Sensitivity Substrate (Thermo Fisher, #34096).
On the technique in general: Immunoblotting shows a protein as a band on a membrane.

In series [2] the target is T1, DCAF1(WDR) (Homo sapiens, UniProt Q9Y4B6, E1398S).
T1 construct: His6 (C); made in house; host or cells: Sf9 insect cells (baculovirus), co-expressed with BirA
Kind of series: SPR, surface immobilized DCAF1(WDR), binary compound binding.

Series [3] has as its target T1, DCAF1(WDR). Kind of series: DCAF1 TR-FRET competition assay, standard binary format. Format: binding. The protocol: Competition assay conditions consist of 20 µL total volume in white 384-well plates (Greiner), in 30 mM phosphate buffer pH 7.4 containing 140 mM NaCl, 0.01% Tween20, 1 mM TCEP and 1% final DMSO. Tested compounds at 14 different concentrations were pre-incubated at 22 °C for 30 min with a large excess of 10 µM human BTK (G389-S659) or 10 µM human BRD9-BD(130-250) in the cooperative assay or with buffer in standard binary assay. […] Samples were then incubated at 22 °C for 30 min before reading using a Tecan infinite M-1000 or PheraStar FSX (excitation 340 nm, emission 490 and 520 nm). DCAF1 protein was omitted in the negative control. IC50 fitting was carried out using an in-house developed software (Novartis Helios software application, unpublished, a publicly available alternative would be e.g., Graphpad Prism) using the methods described by Fomenko et al.[93] (regression algorithms for nonlinear dose-response curve fitting). Following normalization of activity values for the wells to % inhibition (% inhibition = [(high control-sample)/(high control-low control)] × 100). Data analysis could also be carried out using GraphPad Prism without prior normalization. The reported IC50 values are the average of at least two independent experiments.
Background: Time-resolved FRET reads energy transfer from a long-lived donor to a nearby acceptor.

Where [4] appears, read: Fig. 6b, SPR, read-out: KD DCAF1.
Setting [5] is: ± SD (n), read-out: IC50 DCAF1 TR-FRET.

T1 sequence (Q9Y4B6 1073-1399 E1398S): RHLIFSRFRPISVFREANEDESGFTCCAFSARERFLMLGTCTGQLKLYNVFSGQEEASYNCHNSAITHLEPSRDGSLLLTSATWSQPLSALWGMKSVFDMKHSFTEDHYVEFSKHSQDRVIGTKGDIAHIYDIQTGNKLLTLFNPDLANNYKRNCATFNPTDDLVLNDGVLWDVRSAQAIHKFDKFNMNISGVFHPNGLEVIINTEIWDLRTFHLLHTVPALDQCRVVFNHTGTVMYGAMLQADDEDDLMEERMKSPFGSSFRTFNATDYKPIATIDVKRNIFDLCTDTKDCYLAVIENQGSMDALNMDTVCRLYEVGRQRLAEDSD
Chain of BTK (Q06187 2-659 limits assumed): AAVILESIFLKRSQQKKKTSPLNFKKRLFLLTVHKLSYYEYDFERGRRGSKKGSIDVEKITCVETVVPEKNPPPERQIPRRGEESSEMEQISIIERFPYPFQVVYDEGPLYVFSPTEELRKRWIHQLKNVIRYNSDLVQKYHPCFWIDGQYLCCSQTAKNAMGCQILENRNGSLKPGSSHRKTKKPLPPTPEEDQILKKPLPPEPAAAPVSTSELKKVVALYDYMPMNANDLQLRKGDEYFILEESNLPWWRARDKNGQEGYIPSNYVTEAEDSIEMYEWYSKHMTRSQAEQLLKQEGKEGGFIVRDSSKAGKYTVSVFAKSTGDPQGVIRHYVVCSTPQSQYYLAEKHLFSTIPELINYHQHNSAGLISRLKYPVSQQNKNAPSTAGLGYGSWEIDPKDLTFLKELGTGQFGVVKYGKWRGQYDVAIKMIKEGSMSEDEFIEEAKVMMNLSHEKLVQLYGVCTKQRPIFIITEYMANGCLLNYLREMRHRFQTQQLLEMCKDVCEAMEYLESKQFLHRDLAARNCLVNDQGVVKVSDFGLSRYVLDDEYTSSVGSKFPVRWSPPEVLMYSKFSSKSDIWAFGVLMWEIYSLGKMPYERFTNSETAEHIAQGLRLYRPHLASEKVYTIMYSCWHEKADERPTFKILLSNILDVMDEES

With `Cc1nc(Nc2ncc(C(=O)Nc3c(C)cccc3Cl)s2)cc(N2CCC(OC3CCN(CCCCCCCC(=O)N4CCN(c5ccc6c(NCCN)nc(C7(c8ccc(Cl)cc8)CCCCC7)nc6c5)CC4)CC3)CC2)n1` [DDa-1], the GI50 at 24 h in series [1] (read-out: Abs GI50) and in series [1] (read-out: GI50 viability) was 1.2 µM in each case. In addition, the BTK degradation potency entry at BTK (TMD8, 24 h, immunoblot) was “sub-µM potency”.
Turning to `Cc1c(NC(=O)N2CC(O)(CC(C)(C)C)C2)cc(F)cc1-c1ncnc2[nH]c(-c3cnn(CC(=O)N4CCC5(CC4)CN(CCNC(=O)CCCC(=O)N4CCN(c6ccc7c(NCCN)nc(C8(c9ccc(Cl)cc9)CCCCC8)nc7c6)CC4)CCO5)c3)cc12` [DBt-10], the Kd on DCAF1(WDR) [2] (setting [4]) stood at 0.147 µM. The GI50 at 24 h in series [1] (read-out: GI50) is above 25 µM. In addition, on DCAF1(WDR) [3] (setting [5]), the IC50 worked out at 0.134 ± 0.068 µM. Besides, at BTK (TMD8, 6 h dose-response, immunoblot), the “concentration giving significant reduction of BTK” value was found to be 2.5 µM.
As for `COc1cc(-c2cn(C)c(=O)c3cnccc23)c(OC)cc1CN1CCC(OCCCCCC(=O)N2CCN(c3ccc4c(NCCN)nc(C5(c6ccc(Cl)cc6)CCCCC5)nc4c3)CC2)CC1` [DBr-1], at DCAF1(WDR) [2] (binary, compound alone, spread in brackets, read-out: SPR KD), the equilibrium dissociation constant (Kd) was 0.013 µM. In addition, the IC50 at DCAF1(WDR) [3] (binary, compound alone, spread in brackets, read-out: TR-FRET Q. IC50) is 0.038 µM.
For the molecule `Cc1c(NC(=O)c2ccc(C(C)(C)O)cc2F)cc(F)cc1-c1ncnc2[nH]c(-c3ccc(CNCCOCCOCCOCCOCCOCCOCCOCCOCCOCCOCCOCCOCCC(=O)N4CCN(c5ccc6c(NCCN)nc(C7(c8ccc(Cl)cc8)CCCCC7)nc6c5)CC4)cc3)cc12` [DBt-5], the Kd on DCAF1(WDR) [2] (setting [4]) was determined as 0.09 µM. The GI50 at 24 h came to 4.12 µM in series [1] (read-out: Abs GI50) and 4.24 µM in series [1] (read-out: GI50). Besides, the IC50 at DCAF1(WDR) [3] (setting [5]) amounted to 0.023 ± 0.005 µM.
With `CC(=O)N1CCN(c2ccc3c(NCCN)nc(C4(c5ccc(Cl)cc5)CCCCC4)nc3c2)CC1` [compound 13], the figures for the GI50 at 24 h in series [1] (read-out: Abs GI50) and in series [1] (read-out: GI50) were 5.22 µM and 5.04 µM, respectively. Further, at BTK (TMD8, 1 µM, 1, 3, 6 and 24 h), the “BTK reduction by control treatment” value was “did not reduce BTK at any time points”.
